Source: US20230105212A1, “BIPHENYL DERIVATIVE INHIBITOR, PREPARATION METHOD THEREFOR AND USE THEREOF” (SHANGHAI HANSOH BIOMEDICAL CO., LTD., priority 2020, published 2023)

Key:
[1] = target: T1, PD-L1 protein on the surface of MC38-hPDL1 tumor cells (Homo sapiens, UniProt Q9NZQ7); experiment: Induction of endocytosis of PD-L1 on the surface of tumor cells (flow cytometry); assay type: cell-based; conditions: 16 hours incubation; for Emax: MC38-hPDL1 cells, read-out: MC38 maximum endocytosis rate; for IC50: inducing endocytosis of PD-L1, MC38-hPDL1 cells, read-out: MC38 IC50
T1 construct: expressed in transfected cells; host or cells: MC38-hPDL1 (mouse colon cancer cells)
T1 sequence (Q9NZQ7 19-290): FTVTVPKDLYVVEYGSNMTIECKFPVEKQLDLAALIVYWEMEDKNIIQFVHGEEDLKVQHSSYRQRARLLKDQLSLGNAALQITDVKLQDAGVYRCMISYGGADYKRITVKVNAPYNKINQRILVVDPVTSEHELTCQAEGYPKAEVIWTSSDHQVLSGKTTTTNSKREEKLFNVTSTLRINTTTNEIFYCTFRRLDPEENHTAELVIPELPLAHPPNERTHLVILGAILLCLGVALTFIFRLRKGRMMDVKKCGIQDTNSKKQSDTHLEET
Summary of the method: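 MC38-hPDL1 mouse colon cancer cells overexpressing human PD-L1 were exposed to compound dilutions for 16 h at 37 °C. Surface PD-L1 was then stained with PE anti-human CD274 for 30 min at room temperature and measured by flow cytometry. Endocytosis rate versus concentration was fitted by nonlinear regression to give IC50.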

[2] = test system: CHO-PDL1/Jurkat-PD1 cell pathway; experiment: Inhibition of CHO-PDL1/Jurkat-PD1 cell pathway (NFAT luciferase reporter); assay type: cell-based; conditions: for EC50: 6 hours incubation, luciferase signal; for maximal fold induction: relative to the signal value of the non-dosed group, read-out: Maximum induction fold
Experimental: Test Embodiment 3. Inhibitory Effect of the Compounds of the Present Disclosure on CHO-PDL1/Jurkat-PD1 Cell Pathway
Experimental purpose: The purpose of this test embodiment was to test the inhibitory effect of compounds on the CHO-PDL1/Jurkat-PD1 cell pathway.
Experimental method: Two stably transfected cell lines were included in this experiment, CHO-K1 cells stably transfected with PD-L1 and Jurkat cells stably transfected with PD-1 and NFAT luciferase reporter genes. Compounds were incubated with the two cell lines. Then, due to the inhibitory effect on the PD-1/PD-L1 pathway, the activation degree of Jurkat cells changed, so that the level of the reporter gene NFAT in the downstream of Jurkat cells changed, and the level of NFAT was characterized by detecting the signal value of luciferase, so that the inhibitory effect of the test compound on CHO-PDL1/Jurkat-PD1 pathway was characterized.
CHO-PDL1 cells (Promega, #J1252) were cultured to a suitable cell density. After digestion, the cells were resuspended by complete medium to become a suitable density of cell suspension. The cell suspension was plated 100 μL per well on a 96-well plate (Corning, #3610), and placed in a 37° C., 5% CO2 incubator and incubated overnight, and assay medium (RPMI 1640+2% FBS, RPMI 1640 Cat. No.: Gibco, #22400089, FBS Cat. No.: Gibco, #10091148) was used to prepare compound solutions of different concentrations. NFAT-luc2/PD1 Jurkat cells (Promega, #J1252) were collected and resuspended to the appropriate cell density using assay medium. The supernatant of the CHO-PDL1 cell culture plate was aspirated, and 40 μL of the prepared compound solution and 40 μL of resuspended NFAT-luc2/PD1 Jurkat cells were added, and incubated in a 5% CO2 incubator at 37° C. for 6 hours, and the cell plate was taken out, then 40 μL of One-Glo reagent (Promega, #E6120) was added to each well, shaked and mixed well, incubated in the dark at room temperature for 10 minutes, then put into a microplate reader and the luminescence program was used to read the luminescence value of the cell plate.
The EC50 value was fitted according to the compound concentration and the luminescence signal value, and the maximum induction fold of each compound relative to the signal value of the non-dosed group was calculated, as shown in Table 3.

human PD-L1 protein = target: T2, human PD-L1 protein (Homo sapiens, UniProt Q9NZQ7); experiment: Thermal shift: melting temperature of PD-L1 protein; assay type: binding; conditions: compound 10 μM, PD-L1 protein 2 μM, Tm minus DMSO vehicle control; read-out: ΔTm (° C.)
T2 construct: purchased Acro Biosystems PD1-H5229
T2 sequence (Q9NZQ7 19-238 limits assumed): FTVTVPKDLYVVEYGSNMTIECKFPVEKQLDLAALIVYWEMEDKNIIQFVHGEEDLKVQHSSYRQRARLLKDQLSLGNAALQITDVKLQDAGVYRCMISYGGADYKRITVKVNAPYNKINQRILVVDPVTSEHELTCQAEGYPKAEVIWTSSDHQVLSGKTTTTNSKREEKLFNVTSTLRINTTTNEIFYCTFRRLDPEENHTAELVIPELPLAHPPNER
Summary of the method: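 Human PD-L1 at 2 μM final was tested in […], 150 mM NaCl with SYPRO Orange, heated 25→95 °C at 0.03 °C/s in a PCR melt-curve run. Tm was taken per treatment; ΔTm is the shift relative to DMSO vehicle.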

human PD-1/PD-L1 binding = target: T3, human PD-1/PD-L1 binding (Homo sapiens, UniProt Q9NZQ7); experiment: Inhibition of human PD-1/PD-L1 binding (TR-FRET/HTRF); conditions: TR-FRET, PD-L1-His and PD-1-Fc; read-out: PD-1/PD-L1 binding IC50
T3 construct: PD-L1-His protein (19 to 238 amino acids) (Abcam #ab167713); purchased Abcam (PD-L1-His); R&D (PD-1-Fc) ab167713; 1086-PD
T3 sequence (Q9NZQ7 19-238): as the sequence (Q9NZQ7 19-238 limits assumed) above
Summary of the method: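 PD-L1-His (aa 19–238, diluted to 10 nM) and PD-1-Fc (aa 25–167, diluted to 20 nM) incubated with compounds (10 μM or 1 μM top, 3-fold, 11 doses) 60 min at room temperature, then anti-6HIS Eu cryptate/anti-human IgG-XL665 added for 3 h RT or overnight 4 °C. HTRF 665/620 nm ratio gave inhibition and IC50.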

MC38-hPDL1 cells = experiment: In vitro cytotoxicity on MC38-hPDL1 cells (CellTiter-Glo); assay type: cell-based, mouse; conditions: for MC38-hPDL1 inhibition rate (%): 72 hours; for IC50: Mus musculus, MC38-hPD-L1, 72 hours
Experimental: (§1) Test Embodiment 5. In Vitro Cytotoxicity of the Compounds of the Present Disclosure on NFAT-Luc2/PD1 Jurkat Cells and MC38-hPDL1 Cells
(§2) Experimental purpose: To test the in vitro cytotoxicity of compounds on NFAT-luc2/PD1 Jurkat cells and MC38-hPDL1 cells.
(§3) When the cells were cultured to an appropriate degree of confluency, the cells were collected, and the cells was adjusted in an appropriate cell concentration by complete medium, then the cell suspension was plated in a 96-well plate, 90 μL per well, and put in a 37° C., 5% CO2 incubator overnight; compound solutions of different concentrations were prepared by DMSO and medium, and a vehicle control was set; compound solutions were added to a 96-well plate, 10 μL per well, and put in a 37° C., 5% CO2 incubator and cultured for 72 hours. After that, CellTiter-Glo solution was added, the mixture was shaken and mixed evenly, incubated in the dark for 10 minutes, and a BioTek Synergy H1 microplate reader was used for reading.
(§4) Luminescence signal value was used to calculate the inhibition rate, and the concentration and inhibition rate were fitted by nonlinear regression curve using Graphpad Prism software to obtain IC50 values, as shown in the following table: […]

[3] = test system: NFAT-luc2/PD1 Jurkat cells; experiment: In vitro cytotoxicity on NFAT-luc2/PD1 Jurkat cells (CellTiter-Glo); assay type: cell-based; conditions: 72 hours; for IC50: Homo sapiens, Jurkat
Experimental: as §1, §2, §3, §4

Emax [1] [%]	ΔTm at 10 µM (human PD-L1 protein) [°C]	IC50 (human PD-1/PD-L1 binding) [µM]	IC50 [1] [µM]	Structure (SMILES)	EC50 [2] [µM]	maximal fold induction [2]	MC38-hPDL1 inhibition rate (%) (MC38-hPDL1 cells)	IC50 (MC38-hPDL1 cells) [µM]	Jurkat-PD1 inhibition rate (%) [3]	IC50 [3] [µM]
96	16.7	0.007	–	CNC(=O)C1CN(Cc2ccc(-c3cccc(-c4cccc(NC(=O)c5nc6c(n5C)CCN(C)C6)c4Cl)c3Cl)nc2OC)C1 [Embodiment 184, N-(2,2′-Dichloro-3′-(6-methoxy-5-((3-(methylcarbamoyl)azetidin-1-yl)methyl)pyridin-2-yl)-[1,1′-biphenyl]-3-yl)-1,5-dimethyl-4,5,6,7-tetrahydro-1H-imidazo[4,5-c]pyridine-2-carboxamide]	0.062	2.8	–	–	–	–
96	13	–	0.0014	COc1nc(-c2cccc(-c3cccc(NC(=O)c4nc5c(n4C)CCN(C)C5)c3Cl)c2Cl)cnc1CN1CC(F)C1 [Embodiment 217, N-(2,2′-Dichloro-3′-(5-((3-fluoroazetidin-1-yl)methyl)-6-methoxypyrazin-2-yl)-[1,1′-biphenyl]-3-yl)-1,5-dimethyl-4,5,6,7-tetrahydro-1H-imidazo[4,5-c]pyridine-2-carboxamide]	–	–	67%	7.15	79%	5.37
97	15	0.0034	–	COc1nc(-c2cccc(-c3cccc(NC(=O)c4nc5c(n4C)CCN(C)C5)c3Cl)c2Cl)ccc1CN1CC(CNC(C)=O)C1 [Embodiment 181, N-(3′-(5-((3-(Acetylaminomethyl)azetidin-1-yl)methyl)-6-methoxypyridin-2-yl)-2,2′-dichloro-[1,1′-biphenyl]-3-yl)-1,5-dimethyl-4,5,6,7-tetrahydro-1H-imidazo[4,5-c]pyridine-2-carboxamide]	0.059	–	–	–	–	–
–	10.8	0.001	–	COc1cc(C(=O)Nc2cccc(-c3cccc(NC(=O)c4nc5c(n4C)CCN(C)C5)c3Cl)c2C)ncc1CNC1(C(=O)O)COC1 [Embodiment 102, 3-(((6-((2′-Chloro-3′-(1,5-dimethyl-4,5,6,7-tetrahydro-1H-imidazo[4,5-c]pyridine-2-carboxamido)-2-methyl-[1,1′-biphenyl]-3-yl)carbamoyl)-4-methoxypyridin-3-yl)methyl)amino)oxetane-3-carboxylic Acid]	–	–	−6.7%^	> 10	−12.0% ^	> 10
96	12.3	0.0064	–	COc1nc(-c2cccc(-c3cccc(NC(=O)c4nc5c(n4C)CCN(C)C5)c3Cl)c2Cl)ccc1CN1CC2(CN(C=O)C2)C1 [Embodiment 193, N-(2,2′-Dichloro-3′-(5-((6-formyl-2,6-diazaspiro[3.3]heptan-2-yl)methyl)-6-methoxypyridin-2-yl)-[1,1′-biphenyl]-3-yl)-1,5-dimethyl-4,5,6,7-tetrahydro-1H-imidazo[4,5-c]pyridine-2-carboxamide]	0.084	2.8	–	–	–	–
94	–	0.0015	0.0051	COc1cc(-c2cccc(-c3cccc(NC(=O)c4nc5c(n4C)CCN(C)C5)c3Cl)c2C)ncc1CNC[C@@H]1CCC(=O)N1 [Embodiment 58, (S)—N-(2-Chloro-3′-(4-methoxy-5-((((5-carbonylpyrrolidin-2-yl)methyl)amino)methyl)pyridin-2-yl)-2′-methyl-[1,1′-biphenyl]-3-yl)-1,5-dimethyl-4,5,6,7-tetrahydro-1H-imidazo[4,5-c]pyridine-2-carboxamide]	0.099	3.5	–	–	–	–
96	14.5	0.0036	–	COc1nc(-c2cccc(-c3cccc(NC(=O)c4nc5c(n4C)CCN(C)C5)c3Cl)c2Cl)ccc1CN1CC2(CCN(C(C)=O)C2)C1 [Embodiment 195, N-(3′-(5-((6-Acetyl-2,6-diazaspiro[3.4]octan-2-yl)methyl)-6-methoxypyridin-2-yl)-2,2′-dichloro-[1,1′-biphenyl]-3-yl)-1,5-dimethyl-4,5,6,7-tetrahydro-1H-imidazo[4,5-c]pyridine-2-carboxamide]	0.089	3.6	–	–	–	–
91	–	0.0084	–	COc1nc(-c2cccc(-c3cccc(NC(=O)c4nc5c(n4C4CC4)CCN(C)C5)c3Cl)c2Cl)ccc1CN1CC2(C1)CN(C(C)=O)C2 [Embodiment 243, N-(3′-(5-((6-Acetyl-2,6-diazaspiro[3.3]heptan-2-yl)methyl)-6-methoxypyridin-2-yl)-2,2′-dichloro-[1,1′-biphenyl]-3-yl)-1-cyclopropyl-5-methyl-4,5,6,7-tetrahydro-1H-imidazo[4,5-c]pyridine-2-carboxamide]	0.074	3.1	–	–	–	–
93	16	0.0043	–	COc1nc(-c2cccc(-c3cccc(NC(=O)c4nc5c(n4C)CCN(C)C5)c3Cl)c2Cl)ccc1CN1CCC2(CC1)CN(C(C)=O)C2 [Embodiment 197, N-(3′-(5-((2-Acetyl-2,7-diazaspiro[3.5]nonan-7-yl)methyl)-6-methoxypyridin-2-yl)-2,2′-dichloro-[1,1′-biphenyl]-3-yl)-1,5-dimethyl-4,5,6,7-tetrahydro-1H-imidazo[4,5-c]pyridine-2-carboxamide]	0.067	3.5	–	–	–	–
92	–	0.0052	–	COc1nc(-c2cccc(-c3cccc(NC(=O)c4nc5c(n4C)CCN(C)C5)c3Cl)c2Cl)ncc1CN1CC2(C1)CN(C(C)=O)C2 [Embodiment 222, N-(3′-(5-((6-Acetyl-2,6-diazaspiro[3.3]heptan-2-yl)methyl)-4-methoxypyrimidin-2-yl)-2,2′-dichloro-[1,1′-biphenyl]-3-yl)-1,5-dimethyl-4,5,6,7-tetrahydro-1H-imidazo[4,5-c]pyridine-2-carboxamide]	–	–	0%	> 10	36%	> 10
